This is an account of results in patent publication US20220175825A1, “COMPOSITION AND ASSOCIATED DELIVERY DEVICE FOR HYDROGEN THERAPY” (UNIVERSITE GRENOBLE ALPES, priority 2019, published 2022).

The conditions of data set [1]: cited from earlier work.
Data set [2] is described as follows: kinetics of dihydrogen release on dissolution of a hydride composition in 30 mL PBS solution, according to pH. The conditions noted are these: substantially 13 mg hydride in 30 mL PBS. The data set is classed as physicochemical.
The nature of data set [3]: pH of the PBS solution following dissolution of the hydride. In kind it is physicochemical. As to conditions: after dissolution.

Consider `[HH]` [dihydrogen], for which the “saturation limit concentration in water” value in data set [1] is given as 1.57 ppm.

For `[H-].[H-].[Mg+2]` [magnesium hydride], the “required time for reaching the release of about 1 ppm of dihydrogen after immersion” value in data set [2] (pH 5.8) is “about 30 seconds”; in data set [2] (pH 7.4), approximately 4 min; in data set [2] (pH 8.45), approximately 5 min. In addition, in data set [3], the “pH of the PBS solution following the dissolution of the hydride” value amounted to 10.
